pEC50, pIC50: −log10 of the molar value.
Columns and labels:
[1] = target: purified recombinant human GAC (GLS1) (Homo sapiens (Human), UniProt O94925); experiment: GLS1 Enzymatic Activity Assay (dual-coupled enzymatic assay, resorufin/Amplex UltraRed readout); type: biochemical;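 note: glutamate from GAC coupled via glutamate oxidase and peroxidase to resorufin, read as fluorescence (ex 530, em 590 nm) kinetically or at 20 min, four-parameter logistic IC50 fit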
[2] = system: A549 cells; experiment: Proliferation Assay (A549 viability, Cell Titer Fluor, 72 hours); type: cell-based; details: Homo sapiens, A549, 72 h
Outline: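 Cell Titer Fluor fluorescence after 72 h compound treatment (0.5% DMSO, 37 °C, 5% CO2) of A549 cells plated 24 h earlier at 1000/well. Four-parameter logistic fitting gave IC50.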

Chain of purified recombinant human GAC (GLS1) (O94925 other isoform, or with tags, fused parts or gaps): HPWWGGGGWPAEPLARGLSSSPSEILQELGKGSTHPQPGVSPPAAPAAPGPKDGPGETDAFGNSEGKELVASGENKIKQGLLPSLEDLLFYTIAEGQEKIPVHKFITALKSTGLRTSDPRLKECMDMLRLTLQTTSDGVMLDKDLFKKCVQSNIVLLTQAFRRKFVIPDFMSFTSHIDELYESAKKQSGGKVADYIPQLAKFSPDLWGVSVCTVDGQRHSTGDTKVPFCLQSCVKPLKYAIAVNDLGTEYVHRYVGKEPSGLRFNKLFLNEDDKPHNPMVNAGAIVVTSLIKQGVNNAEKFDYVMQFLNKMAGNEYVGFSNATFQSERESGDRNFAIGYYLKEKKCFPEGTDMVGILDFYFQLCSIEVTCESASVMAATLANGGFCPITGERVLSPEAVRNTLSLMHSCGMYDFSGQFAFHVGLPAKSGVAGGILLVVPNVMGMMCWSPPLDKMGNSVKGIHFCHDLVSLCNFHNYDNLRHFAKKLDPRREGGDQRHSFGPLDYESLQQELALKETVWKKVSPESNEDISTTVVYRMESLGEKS

Structure (SMILES)	pIC50 [1]	pEC50 [2]
O=C(CN1CC(F)(F)C1)Nc1cn(CC(F)CCn2cc(C(=O)NCc3ncccc3F)nn2)nn1 (centres unmarked) [Example 410, 1-(4-{4-[2-(3,3-difluoroazetidin-1-yl)acetamido]-1H-1,2,3-triazol-1-yl}-3-fluorobutyl)-N-[(3-fluoropyridin-2-yl)methyl]-1H-1,2,3-triazole-4-carboxamide]	5.30 to 6.30	5.30 to 6.30
CNC(=O)c1cn(CCCCc2ccc(NC(=O)CN3CCCCC3=O)nn2)nn1 [Example 214, N-methyl-1-(4-(6-(2-(2-oxopiperidin-1-yl)acetamido)pyridazin-3-yl)butyl)-1H-1,2,3-triazole-4-carboxamide]	6.30 to 7.00	< 5.30
O=C(NCc1ccccc1)c1cn(CCC(F)Cn2cc(C(=O)NCc3cc(C(F)(F)F)ccn3)nn2)nn1 (centres unmarked) [Example 460, 1-{4-[4-(benzylcarbamoyl)-1H-1,2,3-triazol-1-yl]-2-fluorobutyl}-N-{[4-(trifluoromethyl)pyridin-2-yl]methyl}-1H-1,2,3-triazole-4-carboxamide]	6.30 to 7.00	6.30 to 7.00
CNC(=O)c1cn(CCC(F)Cn2cc(C(=O)NCc3cnc4ccccc4c3)nn2)nn1 (centres unmarked) [Example 170, 1-(3-fluoro-4-{4-[(quinolin-3-ylmethyl)carbamoyl]-1H-1,2,3-triazol-1-yl}butyl)-N-methyl-1H-1,2,3-triazole-4-carboxamide]	6.30 to 7.00	5.30 to 6.30
CNC(=O)c1cn(CC(F)CCc2nnc(C(=O)NCc3ccc(C(F)(F)F)cn3)s2)nn1 (centres unmarked) [Example 189, 5-{3-fluoro-4-[4-(methylcarbamoyl)-1H-1,2,3-triazol-1-yl]butyl}-N-{[5-(trifluoromethyl)pyridin-2-yl]methyl}-1,3,4-thiadiazole-2-carboxamide]	5.30 to 6.30	< 5.30
O=C(Cc1cc(-c2cccc(OC(F)(F)F)c2)ccn1)Nc1ccc(CCCCn2cc(C(=O)NCCO)nn2)nn1 [Example 246, N-(2-hydroxyethyl)-1-(4-(6-(2-(4-(3-(trifluoromethoxy)phenyl)pyridin-2-yl)acetamido)pyridazin-3-yl)butyl)-1H-1,2,3-triazole-4-carboxamide]	> 7.00	> 7.00
CNC(=O)c1cn(CC(F)CCc2nnc(NC(=O)Cc3cccnc3)s2)nn1 (centres unmarked) [Example 578, 1-(2-fluoro-4-(5-(2-(pyridin-3-yl)acetamido)-1,3,4-thiadiazol-2-yl)butyl)-N-methyl-1H-1,2,3-triazole-4-carboxamide]	> 7.00	5.30 to 6.30
O=C(Cc1cc(Cl)ccc1F)Nc1cn(CCCCn2cc(C(=O)NCc3cc(OC(F)(F)F)ccc3F)nn2)nn1 [Example 386, 1-(4-{4-[2-(5-chloro-2-fluorophenyl)acetamido]-1H-1,2,3-triazol-1-yl}butyl)-N-{[2-fluoro-5-(trifluoromethoxy)phenyl]methyl}-1H-1,2,3-triazole-4-carboxamide]	> 7.00	> 7.00
COC(=O)Nc1ccc(CCCCn2cc(C(=O)NCc3cc(C(F)(F)F)ccn3)nn2)nn1 [Example 224, methyl (6-(4-(4-(((4-(trifluoromethyl)pyridin-2-yl)methyl)carbamoyl)-1H-1,2,3-triazol-1-yl)butyl)pyridazin-3-yl)carbamate]	6.30 to 7.00	6.30 to 7.00
O=C(NCc1ccc(F)cc1)c1cn(CCC(F)Cn2cc(C(=O)NCc3cc(C(F)(F)F)ccn3)nn2)nn1 (centres unmarked) [Example 459, 1-[2-fluoro-4-(4-{[(4-fluorophenyl)methyl]carbamoyl}-1H-1,2,3-triazol-1-yl)butyl]-N-{[4-(trifluoromethyl)pyridin-2-yl]methyl}-1H-1,2,3-triazole-4-carboxamide]	> 7.00	6.30 to 7.00
COCCNC(=O)c1nnc(CCCCc2ccc(NC(=O)Cc3cccc(OC(F)(F)F)c3)nn2)s1 [Example 6, N-(2-methoxyethyl)-5-(4-(6-(2-(3-(trifluoromethoxy)phenyl)acetamido)pyridazin-3-yl)butyl)-1,3,4-thiadiazole-2-carboxamide]	> 7.00	> 7.00
O=C(NCc1cncc(C(F)(F)F)c1)c1cn(CCCCn2cc(C(=O)NCc3cccc(C(F)(F)F)n3)nn2)nn1 [Example 144, 1-{4-[4-({[6-(trifluoromethyl)pyridin-2-yl]methyl}carbamoyl)-1H-1,2,3-triazol-1-yl]butyl}-N-{[5-(trifluoromethyl)pyridin-3-yl]methyl}-1H-1,2,3-triazole-4-carboxamide]	> 7.00	> 7.00
CNC(=O)c1cn(CCCCc2ccc(NC(=O)Cc3cccc(Cl)c3F)nn2)nn1 [Example 180, 1-(4-{6-[2-(3-chloro-2-fluorophenyl)acetamido]pyridazin-3-yl}butyl)-N-methyl-1H-1,2,3-triazole-4-carboxamide]	> 7.00	6.30 to 7.00
O=C(NCc1cc(C(F)(F)F)ccn1)c1cn(CC(F)CCn2cc(C(=O)N[C@@H](CO)c3ccccc3)nn2)nn1 (stereo partly drawn) [Example 467, 1-[2-fluoro-4-(4-{[(1R)-2-hydroxy-1-phenylethyl]carbamoyl}-1H-1,2,3-triazol-1-yl)butyl]-N-{[4-(trifluoromethyl)pyridin-2-yl]methyl}-1H-1,2,3-triazole-4-carboxamide]	6.30 to 7.00	6.30 to 7.00

The remaining lines, values ahead:

pIC50 [1]	pEC50 [2]	Structure (SMILES)
> 7.00	> 7.00	O=C(Cc1cc(OC(F)(F)F)ccc1F)Nc1cn(CCCCn2cc(C(=O)NCc3cc(OC(F)(F)F)ccc3F)nn2)nn1 [Example 381, 1-[4-(4-{2-[2-fluoro-5-(trifluoromethoxy)phenyl]acetamido}-1H-1,2,3-triazol-1-yl)butyl]-N-{[2-fluoro-5-(trifluoromethoxy)phenyl]methyl}-1H-1,2,3-triazole-4-carboxamide]
> 7.00	> 7.00	COc1ncccc1CNC(=O)c1cn(CC(F)CCc2nnc(NC(=O)Cc3cc(OC(F)(F)F)ccc3F)s2)nn1 (centres unmarked) [Example 223, 1-(2-fluoro-4-(5-(2-(2-fluoro-5-(trifluoromethoxy)phenyl)acetamido)-1,3,4-thiadiazol-2-yl)butyl)-N-((2-methoxypyridin-3-yl)methyl)-1H-1,2,3-triazole-4-carboxamide]
> 7.00	6.30 to 7.00	O=C(NCc1cccc(OC(F)(F)F)c1)c1cn(CCCCc2nnc(C(=O)NCc3ccccn3)s2)nn1 [Example 47, N-(pyridin-2-ylmethyl)-5-{4-[4-({[3-(trifluoromethoxy)phenyl]methyl}carbamoyl)-1H-1,2,3-triazol-1-yl]butyl}-1,3,4-thiadiazole-2-carboxamide]
> 7.00	> 7.00	O=C(NCc1cccc(OC(F)(F)F)c1)c1cn(CCC(F)Cn2cc(C(=O)NCc3cc(C(F)(F)F)ccn3)nn2)nn1 (centres unmarked) [Example 428, 1-{2-fluoro-4-[4-({[3-(trifluoromethoxy)phenyl]methyl}carbamoyl)-1H-1,2,3-triazol-1-yl]butyl}-N-{[4-(trifluoromethyl)pyridin-2-yl]methyl}-1H-1,2,3-triazole-4-carboxamide]
> 7.00	> 7.00	O=C(NCc1cc(C(F)(F)F)ccn1)c1cn(CCC(F)Cn2cc(C(=O)NCc3cc(OC(F)(F)F)ccc3F)nn2)nn1 (centres unmarked) [Example 432, 1-{2-fluoro-4-[4-({[4-(trifluoromethyl)pyridin-2-yl]methyl}carbamoyl)-1H-1,2,3-triazol-1-yl]butyl}-N-{[-fluoro-5-(trifluoromethoxy)phenyl]methyl}-1H-1,2,3-triazole-4-carboxamide]
> 7.00	> 7.00	CNC(=O)c1cn(CC(F)CCc2nnc(NC(=O)Cc3cc(OC(F)(F)F)ccc3F)s2)nn1 (centres unmarked) [Example 518, 1-[2-fluoro-4-(5-{2-[2-fluoro-5-(trifluoromethoxy)phenyl]acetamido}-1,3,4-thiadiazol-2-yl)butyl]-N-methyl-1H-1,2,3-triazole-4-carboxamide]
> 7.00	6.30 to 7.00	O=C(NCc1cccc(OC(F)(F)F)c1)c1cn(CCC(F)Cn2cc(C(=O)N[C@H](CO)c3ccccc3)nn2)nn1 (stereo partly drawn) [Example 462, 1-{2-fluoro-4-[4-({[3-(trifluoromethoxy)phenyl]methyl}carbamoyl)-1H-1,2,3-triazol-1-yl]butyl}-N-[(1S)-2-hydroxy-1-phenylethyl]-1H-1,2,3-triazole-4-carboxamide]
> 7.00	> 7.00	O=C(Cc1cccc(OC(F)(F)F)c1)Nc1nnc(CCC(F)Cn2cc(C(=O)NCc3cc(C(F)(F)F)ccn3)nn2)s1 (centres unmarked) [Example 495, 1-[2-fluoro-4-(5-{2-[3-(trifluoromethoxy)phenyl]acetamido}-1,3,4-thiadiazol-2-yl)butyl]-N-{[4-(trifluoromethyl)pyridin-2-yl]methyl}-1H-1,2,3-triazole-4-carboxamide]
> 7.00	> 7.00	COc1ccc(CNC(=O)c2cn(CC(F)CCc3nnc(NC(=O)Cc4cc(OC(F)(F)F)ccc4F)s3)nn2)cn1 (centres unmarked) [Example 219, 1-(2-fluoro-4-(5-(2-(2-fluoro-5-(trifluoromethoxy)phenyl)acetamido)-1,3,4-thiadiazol-2-yl)butyl)-N-((6-methoxypyridin-3-yl)methyl)-1H-1,2,3-triazole-4-carboxamide]
> 7.00	5.30 to 6.30	Cc1ccc(CNC(=O)c2cn(CCCCc3nnc(C(=O)NCc4ccc(C)nc4)s3)nn2)cn1 [Example 64, N-[(6-methylpyridin-3-yl)methyl]-5-[4-(4-{[(6-methylpyridin-3-yl)methyl]carbamoyl}-1H-1,2,3-triazol-1-yl)butyl]-1,3,4-thiadiazole-2-carboxamide]
> 7.00	> 7.00	O=C(NCc1cccc(OC(F)(F)F)c1)c1cn(CCCCn2cc(C(=O)NCc3cncc(C(F)(F)F)c3)nn2)nn1 [Example 80, N-(3-(trifluoromethoxy)benzyl)-1-(4-(4-(((5-(trifluoromethyl)pyridin-3-yl)methyl)carbamoyl)-1H-1,2,3-triazol-1-yl)butyl)-1H-1,2,3-triazole-4-carboxamide]

Reference: patent US10344025B2, “GLS1 inhibitors for treating disease” (Board of Regents, The University of Texas System, priority 2014, dated 2019)
